Test results reported in ChEMBL document CHEMBL1131112, “Matrix metalloproteinase inhibitors: a structure-activity study” (J Med Chem, 1998).
pKi: −log10 of the molar value.

Biological target: 72 kDa type IV collagenase (Homo sapiens, UniProt P08253)
Sequence (P08253 whole entry): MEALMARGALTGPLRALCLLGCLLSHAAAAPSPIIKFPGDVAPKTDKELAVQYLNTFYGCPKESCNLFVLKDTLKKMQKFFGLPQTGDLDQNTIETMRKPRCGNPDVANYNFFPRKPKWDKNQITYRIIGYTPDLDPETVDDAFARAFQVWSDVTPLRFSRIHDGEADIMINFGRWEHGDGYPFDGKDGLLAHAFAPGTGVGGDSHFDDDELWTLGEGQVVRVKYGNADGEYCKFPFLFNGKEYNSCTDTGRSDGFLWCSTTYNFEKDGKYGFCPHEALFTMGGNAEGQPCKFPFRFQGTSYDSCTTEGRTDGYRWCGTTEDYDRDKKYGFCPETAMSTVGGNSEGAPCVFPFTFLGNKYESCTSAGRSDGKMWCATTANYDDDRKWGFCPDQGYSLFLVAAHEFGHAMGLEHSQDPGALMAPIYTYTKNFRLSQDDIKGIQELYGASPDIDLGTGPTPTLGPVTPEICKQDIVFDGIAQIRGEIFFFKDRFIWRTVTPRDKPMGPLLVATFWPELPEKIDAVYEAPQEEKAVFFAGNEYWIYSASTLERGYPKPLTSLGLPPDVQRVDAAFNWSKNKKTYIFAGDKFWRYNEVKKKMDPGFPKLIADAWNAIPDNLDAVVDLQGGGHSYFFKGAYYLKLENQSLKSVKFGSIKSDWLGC
Description: Binding affinity towards 72 kDa gelatinase (Matrix metalloprotease-2)

Compound | pKi
CC(C)C[C@H](CC(=O)NO)C(=O)N[C@H](Cc1ccncc1)C(=O)NCCc1ccc(O)cc1 | 8.72
CC(C)C[C@H](CC(=O)NO)C(=O)N[C@@H](Cc1c[nH]c2ccccc12)C(=O)NCc1ccccc1 | 8.70
CC(C)C[C@H](CC(=O)NO)C(=O)N[C@H](Cc1ccc2ccccc2c1)C(=O)N[C@@H](C)c1ccccc1 | 7.89
CNC(=O)[C@H](Cc1c[nH]c2ccccc12)NC(=O)[C@@H](CC(=O)O)CC(C)C | 6.77
CNC(=O)[C@@H](Cc1ccc(-c2ccccc2)cc1)NC(=O)[C@@H](CC(=O)NO)CC(C)C | 8.40
CC(C)C[C@H](CC(=O)NO)C(=O)N[C@@H](Cc1c[nH]c2ccccc12)C(=O)NC1CCCC1 | 8.59
CC(C)C[C@H](CC(=O)NO)C(=O)N[C@@H](Cc1c[nH]c2ccccc12)C(=O)NCCCn1ccnc1 | 8.89
CC(C)C[C@H](CC(=O)NO)C(=O)N[C@@H](Cc1c[nH]c2ccccc12)C(=O)NCc1ccc2c(c1)OCO2 | 8.16
CNC(=O)[C@H](Cc1c[nH]c2ccccc12)NC(=O)[C@@H](CC(=O)NOCC(=O)OC)CC(C)C | 4.15
CC(C)C[C@H](CC(=O)NO)C(=O)N[C@H](Cc1ccncc1)C(=O)N[C@@H](C)c1ccccc1 | 8.72
CC(C)C[C@H](CC(=O)NO)C(=O)N[C@H](Cc1ccc2ccccc2c1)C(=O)NCCc1ccc(O)cc1 | 8.09
CNC(=O)[C@H](Cc1c[nH]c2ccccc12)NC(=O)[C@@H](CC(=O)NOC)CC(C)C | 8.20
CC(C)C[C@H](CC(=O)NO)C(=O)N[C@@H](Cc1c[nH]c2ccccc12)C(=O)N1CCCCC1 | 7.72
CNC(=O)[C@H](Cc1c[nH]c2ccccc12)NC(=O)[C@@H](CC(=O)NOCc1ccccc1)CC(C)C | 7.96
CC(C)C[C@H](CC(=O)NO)C(=O)N(C)[C@@H](Cc1c[nH]c2ccccc12)C(=O)NCCCN1CCOCC1 | 7.26
CC(C)C[C@H](CC(=O)NO)C(=O)N[C@H](Cc1ccc2ccccc2c1)C(=O)NCCCN1CCOCC1 | 8.52
CC(C)C[C@H](CC(=O)NO)C(=O)N[C@@H](Cc1c[nH]c2ccccc12)C(=O)N1CCCC1 | 7.70
CC(C)C[C@H](CC(=O)NO)C(=O)N[C@@H](Cc1c[nH]c2ccccc12)C(=O)N(C)C | 7.72
CC(C)C[C@H](CC(=O)NO)C(=O)N[C@H](Cc1ccc(-c2ccccc2)cc1)C(=O)NCCCN1CCOCC1 | 8.17

Continued, values first:

pKi | Compound
8.89 | CNC(=O)[C@@H](Cc1cccc2cccnc12)NC(=O)[C@@H](CC(=O)NO)CC(C)C
9.18 | CCCCCCCC[C@H](CC(=O)NO)C(=O)N[C@@H](Cc1c[nH]c2ccccc12)C(=O)NC
9.06 | CC(C)C[C@H](CC(=O)NO)C(=O)N[C@@H](Cc1c[nH]c2ccccc12)C(=O)NC1CC1
9.28 | CC(C)C[C@H](CC(=O)NO)C(=O)N[C@@H](Cc1c[nH]c2ccccc12)C(=O)NCCc1ccc(O)cc1
9.14 | CC(C)C[C@H](CC(=O)NO)C(=O)N[C@@H](Cc1c[nH]c2ccccc12)C(=O)NCCc1ccccn1
9.36 | CNC(=O)[C@@H](Cc1csc2ccccc12)NC(=O)[C@@H](CC(=O)NO)CC(C)C
9.22 | CC(C)C[C@H](CC(=O)NO)C(=O)N[C@@H](Cc1c[nH]c2ccccc12)C(=O)NCc1ccncc1
9.36 | CC(C)C[C@H](CC(=O)NO)C(=O)N[C@@H](Cc1c[nH]c2ccccc12)C(=O)NCCO
9.15 | CC(C)C[C@H](CC(=O)NO)C(=O)N[C@@H](Cc1c[nH]c2ccccc12)C(=O)NCCCN1CCOCC1
9.24 | CCCC[C@H](CC(=O)NO)C(=O)N[C@@H](Cc1c[nH]c2ccccc12)C(=O)NC
9.00 | CNC(=O)[C@@H](Cc1cnc2ccccc2c1)NC(=O)[C@@H](CC(=O)NO)CC(C)C

Biological target: Neutrophil collagenase (Homo sapiens, UniProt P22894)
Sequence (P22894 whole entry): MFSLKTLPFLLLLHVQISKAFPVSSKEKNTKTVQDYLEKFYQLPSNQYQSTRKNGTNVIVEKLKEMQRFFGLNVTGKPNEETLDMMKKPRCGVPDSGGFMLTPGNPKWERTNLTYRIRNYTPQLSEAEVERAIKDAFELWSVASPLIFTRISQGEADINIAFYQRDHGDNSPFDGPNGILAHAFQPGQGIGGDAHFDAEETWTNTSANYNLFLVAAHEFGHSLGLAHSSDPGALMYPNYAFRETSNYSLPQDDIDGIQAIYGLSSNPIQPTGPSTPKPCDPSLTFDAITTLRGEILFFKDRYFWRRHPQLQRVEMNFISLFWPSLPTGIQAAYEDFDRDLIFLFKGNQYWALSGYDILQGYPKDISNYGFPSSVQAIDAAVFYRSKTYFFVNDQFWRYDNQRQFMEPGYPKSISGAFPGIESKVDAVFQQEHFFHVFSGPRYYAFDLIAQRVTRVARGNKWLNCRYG
Description: The compound was tested for its binding affinity towards neutrophil collagenase (Matrix metalloprotease-8)

Compound | pKi
CC(C)C[C@H](CC(=O)NO)C(=O)N[C@H](Cc1ccncc1)C(=O)NCCc1ccc(O)cc1 | 9.48
CC(C)C[C@H](CC(=O)NO)C(=O)N[C@@H](Cc1c[nH]c2ccccc12)C(=O)NCc1ccccc1 | 8.92
CC(C)C[C@H](CC(=O)NO)C(=O)N[C@H](Cc1ccc2ccccc2c1)C(=O)N[C@@H](C)c1ccccc1 | 7.85
CNC(=O)[C@H](Cc1c[nH]c2ccccc12)NC(=O)[C@@H](CC(=O)O)CC(C)C | 7.77
CNC(=O)[C@@H](Cc1ccc(-c2ccccc2)cc1)NC(=O)[C@@H](CC(=O)NO)CC(C)C | 8.62
CC(C)C[C@H](CC(=O)NO)C(=O)N[C@@H](Cc1c[nH]c2ccccc12)C(=O)NC1CCCC1 | 8.80
CC(C)C[C@H](CC(=O)NO)C(=O)N[C@@H](Cc1c[nH]c2ccccc12)C(=O)NCCCn1ccnc1 | 9.23
CC(C)C[C@H](CC(=O)NO)C(=O)N[C@@H](Cc1c[nH]c2ccccc12)C(=O)NCc1ccc2c(c1)OCO2 | 8.43
CNC(=O)[C@H](Cc1c[nH]c2ccccc12)NC(=O)[C@@H](CC(=O)NOCC(=O)OC)CC(C)C | 6.34
CC(C)C[C@H](CC(=O)NO)C(=O)N[C@H](Cc1ccncc1)C(=O)N[C@@H](C)c1ccccc1 | 9.15
CC(C)C[C@H](CC(=O)NO)C(=O)N[C@H](Cc1ccc2ccccc2c1)C(=O)NCCc1ccc(O)cc1 | 8.35
CNC(=O)[C@H](Cc1c[nH]c2ccccc12)NC(=O)[C@@H](CC(=O)NOC)CC(C)C | 8.11
CC(C)C[C@H](CC(=O)NO)C(=O)N[C@@H](Cc1c[nH]c2ccccc12)C(=O)N1CCCCC1 | 7.57
CNC(=O)[C@H](Cc1c[nH]c2ccccc12)NC(=O)[C@@H](CC(=O)NOCc1ccccc1)CC(C)C | 7.80
CC(C)C[C@H](CC(=O)NO)C(=O)N(C)[C@@H](Cc1c[nH]c2ccccc12)C(=O)NCCCN1CCOCC1 | 7.11
CC(C)C[C@H](CC(=O)NO)C(=O)N[C@H](Cc1ccc2ccccc2c1)C(=O)NCCCN1CCOCC1 | 8.35
CC(C)C[C@H](CC(=O)NO)C(=O)N[C@@H](Cc1c[nH]c2ccccc12)C(=O)N1CCCC1 | 7.77
CC(C)C[C@H](CC(=O)NO)C(=O)N[C@@H](Cc1c[nH]c2ccccc12)C(=O)N(C)C | 8.07
CC(C)C[C@H](CC(=O)NO)C(=O)N[C@H](Cc1ccc(-c2ccccc2)cc1)C(=O)NCCCN1CCOCC1 | 8.17

Results, then the molecule that gave them:

pKi | Compound
9.27 | CNC(=O)[C@@H](Cc1cccc2cccnc12)NC(=O)[C@@H](CC(=O)NO)CC(C)C
8.80 | CCCCCCCC[C@H](CC(=O)NO)C(=O)N[C@@H](Cc1c[nH]c2ccccc12)C(=O)NC
9.47 | CC(C)C[C@H](CC(=O)NO)C(=O)N[C@@H](Cc1c[nH]c2ccccc12)C(=O)NC1CC1
10.00 | CC(C)C[C@H](CC(=O)NO)C(=O)N[C@@H](Cc1c[nH]c2ccccc12)C(=O)NCCc1ccc(O)cc1
9.31 | CC(C)C[C@H](CC(=O)NO)C(=O)N[C@@H](Cc1c[nH]c2ccccc12)C(=O)NCCc1ccccn1
9.35 | CNC(=O)[C@@H](Cc1csc2ccccc12)NC(=O)[C@@H](CC(=O)NO)CC(C)C
9.54 | CC(C)C[C@H](CC(=O)NO)C(=O)N[C@@H](Cc1c[nH]c2ccccc12)C(=O)NCc1ccncc1
9.46 | CC(C)C[C@H](CC(=O)NO)C(=O)N[C@@H](Cc1c[nH]c2ccccc12)C(=O)NCCO
9.41 | CC(C)C[C@H](CC(=O)NO)C(=O)N[C@@H](Cc1c[nH]c2ccccc12)C(=O)NCCCN1CCOCC1
9.52 | CCCC[C@H](CC(=O)NO)C(=O)N[C@@H](Cc1c[nH]c2ccccc12)C(=O)NC
9.00 | CNC(=O)[C@@H](Cc1cnc2ccccc2c1)NC(=O)[C@@H](CC(=O)NO)CC(C)C

Biological target: Matrix metalloproteinase-9 (Homo sapiens, UniProt P14780)
Sequence (P14780 whole entry): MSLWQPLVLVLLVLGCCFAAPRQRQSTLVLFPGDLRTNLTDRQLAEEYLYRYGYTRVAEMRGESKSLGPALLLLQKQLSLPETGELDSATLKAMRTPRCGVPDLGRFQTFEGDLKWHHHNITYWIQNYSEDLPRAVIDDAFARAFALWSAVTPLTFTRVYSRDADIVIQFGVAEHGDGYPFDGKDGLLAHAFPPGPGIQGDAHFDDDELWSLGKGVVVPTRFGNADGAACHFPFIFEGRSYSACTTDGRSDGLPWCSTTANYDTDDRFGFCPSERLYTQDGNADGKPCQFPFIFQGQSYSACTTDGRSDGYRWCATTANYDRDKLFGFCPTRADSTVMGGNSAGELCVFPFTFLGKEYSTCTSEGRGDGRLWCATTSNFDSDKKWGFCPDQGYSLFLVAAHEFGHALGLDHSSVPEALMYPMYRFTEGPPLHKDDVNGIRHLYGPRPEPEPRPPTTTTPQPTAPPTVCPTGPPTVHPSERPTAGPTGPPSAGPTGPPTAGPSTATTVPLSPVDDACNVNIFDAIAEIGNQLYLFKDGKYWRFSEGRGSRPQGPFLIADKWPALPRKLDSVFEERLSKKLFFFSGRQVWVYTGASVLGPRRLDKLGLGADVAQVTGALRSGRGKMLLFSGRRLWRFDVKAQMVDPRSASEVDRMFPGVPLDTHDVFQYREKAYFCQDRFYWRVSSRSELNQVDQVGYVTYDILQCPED
Description: The compound was tested for its binding affinity towards 92 kDa gelatinase (Matrix metalloprotease-9)

Compound | pKi
CC(C)C[C@H](CC(=O)NO)C(=O)N[C@H](Cc1ccncc1)C(=O)NCCc1ccc(O)cc1 | 8.77
CC(C)C[C@H](CC(=O)NO)C(=O)N[C@@H](Cc1c[nH]c2ccccc12)C(=O)NCc1ccccc1 | 8.30
CC(C)C[C@H](CC(=O)NO)C(=O)N[C@H](Cc1ccc2ccccc2c1)C(=O)N[C@@H](C)c1ccccc1 | 8.16
CNC(=O)[C@H](Cc1c[nH]c2ccccc12)NC(=O)[C@@H](CC(=O)O)CC(C)C | 7.00
CNC(=O)[C@@H](Cc1ccc(-c2ccccc2)cc1)NC(=O)[C@@H](CC(=O)NO)CC(C)C | 8.39
CC(C)C[C@H](CC(=O)NO)C(=O)N[C@@H](Cc1c[nH]c2ccccc12)C(=O)NC1CCCC1 | 8.52
CC(C)C[C@H](CC(=O)NO)C(=O)N[C@@H](Cc1c[nH]c2ccccc12)C(=O)NCCCn1ccnc1 | 8.96
CC(C)C[C@H](CC(=O)NO)C(=O)N[C@@H](Cc1c[nH]c2ccccc12)C(=O)NCc1ccc2c(c1)OCO2 | 8.77
CNC(=O)[C@H](Cc1c[nH]c2ccccc12)NC(=O)[C@@H](CC(=O)NOCC(=O)OC)CC(C)C | 6.24
CC(C)C[C@H](CC(=O)NO)C(=O)N[C@H](Cc1ccncc1)C(=O)N[C@@H](C)c1ccccc1 | 8.60
CC(C)C[C@H](CC(=O)NO)C(=O)N[C@H](Cc1ccc2ccccc2c1)C(=O)NCCc1ccc(O)cc1 | 8.77
CNC(=O)[C@H](Cc1c[nH]c2ccccc12)NC(=O)[C@@H](CC(=O)NOC)CC(C)C | 8.10
CC(C)C[C@H](CC(=O)NO)C(=O)N[C@@H](Cc1c[nH]c2ccccc12)C(=O)N1CCCCC1 | 7.89
CNC(=O)[C@H](Cc1c[nH]c2ccccc12)NC(=O)[C@@H](CC(=O)NOCc1ccccc1)CC(C)C | 7.89
CC(C)C[C@H](CC(=O)NO)C(=O)N(C)[C@@H](Cc1c[nH]c2ccccc12)C(=O)NCCCN1CCOCC1 | 7.16
CC(C)C[C@H](CC(=O)NO)C(=O)N[C@H](Cc1ccc2ccccc2c1)C(=O)NCCCN1CCOCC1 | 8.46
CC(C)C[C@H](CC(=O)NO)C(=O)N[C@@H](Cc1c[nH]c2ccccc12)C(=O)N1CCCC1 | 7.59
CC(C)C[C@H](CC(=O)NO)C(=O)N[C@@H](Cc1c[nH]c2ccccc12)C(=O)N(C)C | 7.66
CC(C)C[C@H](CC(=O)NO)C(=O)N[C@H](Cc1ccc(-c2ccccc2)cc1)C(=O)NCCCN1CCOCC1 | 8.44

Results, then the molecule that gave them:

pKi | Compound
8.82 | CNC(=O)[C@@H](Cc1cccc2cccnc12)NC(=O)[C@@H](CC(=O)NO)CC(C)C
9.20 | CCCCCCCC[C@H](CC(=O)NO)C(=O)N[C@@H](Cc1c[nH]c2ccccc12)C(=O)NC
8.92 | CC(C)C[C@H](CC(=O)NO)C(=O)N[C@@H](Cc1c[nH]c2ccccc12)C(=O)NC1CC1
8.96 | CC(C)C[C@H](CC(=O)NO)C(=O)N[C@@H](Cc1c[nH]c2ccccc12)C(=O)NCCc1ccc(O)cc1
8.85 | CC(C)C[C@H](CC(=O)NO)C(=O)N[C@@H](Cc1c[nH]c2ccccc12)C(=O)NCCc1ccccn1
9.08 | CNC(=O)[C@@H](Cc1csc2ccccc12)NC(=O)[C@@H](CC(=O)NO)CC(C)C
8.82 | CC(C)C[C@H](CC(=O)NO)C(=O)N[C@@H](Cc1c[nH]c2ccccc12)C(=O)NCc1ccncc1
9.12 | CC(C)C[C@H](CC(=O)NO)C(=O)N[C@@H](Cc1c[nH]c2ccccc12)C(=O)NCCO
8.72 | CC(C)C[C@H](CC(=O)NO)C(=O)N[C@@H](Cc1c[nH]c2ccccc12)C(=O)NCCCN1CCOCC1
9.27 | CCCC[C@H](CC(=O)NO)C(=O)N[C@@H](Cc1c[nH]c2ccccc12)C(=O)NC
9.15 | CNC(=O)[C@@H](Cc1cnc2ccccc2c1)NC(=O)[C@@H](CC(=O)NO)CC(C)C
